Source: patent US8962322B2, “Enhancers of induced pluripotent stem cell reprogramming” (City of Hope, priority 2012, dated 2015)
Where two headings read alike, the source gives them in different places.

What was measured:
[1] = system: β-catenin-responsive reporter gene Topflash; experiment: Topflash luciferase reporter assay in CV1 cells (Wnt signaling); type: cell-based; conditions: 1 μM OAC1 or 2 μM BIO, 48 hr
Protocol: Whether OAC1 regulates major signaling pathways that are critical for embryonic stem cell pluripotency was investigated. […] CV1 cells were transfected with the β-catenin-responsive reporter gene Topflash, and the transfected cells were treated with vehicle control or OAC1 (FIG. 6C). The glycogen synthase kinase 3β (GSK3β) inhibitor BIO was included as a positive control (42).
(§1) AzaC, 25 μg/ml Vc, 10 nM Am580, 5 μM tranylcypromine, and 0.5 mM VPA. Luciferase reporter assays were performed as described (51) 24 hr after compound treatment or at indicated time points. For Topflash reporter assays, 0.2 μg β-catenin-responsive Topflash reporter gene plasmid was introduced into CV1 cells using trasfection (Bio-Rad). Compounds were added 6 hr after transfection. Luciferase activity was measured 48 hr after compound treatment using the Glo Luciferase Assay System (Promega).

[2] = system: human Nanog promoter; experiment: Nanog-luc luciferase reporter assay (stably transfected CV1 cells); type: cell-based; conditions: for induction of Nanog-luc, comparison with known reprogramming enhancers (in words): OAC1 1 μM, BIO 2 μM, BIX 2 μM, AzaC 2 μM, Vc 25 μg/ml, Am580 10 nM, tranylcypromine 5 μM, VPA 0.5 mM, two days
Protocol: Oct4, Sox2, and Nanog form a positive regulatory loop to regulate the expression of each other, and Nanog is considered a downstream target gene of Oct4 and Sox2 (37). Therefore, activation of Nanog promoter was used as a validation assay for the identified compounds. Specifically, the Oct4 promoter-activating compounds were tested to ascertain whether they activate a human
Nanog promoter-driven luciferase reporter gene using in triplicate luciferase reporter assays.
(§2) Then the promoter sequences were cloned into pGL4.4-luc-Hyg vector (Promega) to get Oct4-luc or Nanog-luc construct and the fidelity of the Oct4 and Nanog promoter DNA sequences was confirmed by bi-directional sequencing. CV 1 cells were transfected with the Oct4-luc or Nanog-luc constructs and the stably-transfected cells were selected by hygromycine resistance.
(§3) Luciferase Reporter Assays: The Oct4-luc or Nanog-luc cells were treated with compound OAC 1 or its structural analogs at 1 μM concentration or at indicated concentrations in triplicates. Other compounds used include 2 μM BIO, 2 μM BIX, 2 μM
as §1

[3] = system: human Oct4 promoter; experiment: Oct4-luc luciferase reporter assay (stably transfected CV1 cells); type: cell-based; conditions: for induction of Oct4-luc, comparison with known reprogramming enhancers (in words): OAC1 1 μM, BIO 2 μM, BIX 2 μM, AzaC 2 μM, Vc 25 μg/ml, Am580 10 nM, tranylcypromine 5 μM, VPA 0.5 mM, two days; for fold induction at 1 µM: compound at 1 μM, Oct4-luc cells, triplicates
Description: A high-throughput screening scheme was designed to identify Oct4 promoter-activating compounds using a luciferase reporter under the control of the human Oct4 promoter (Oct4-luc). […] A stable cell line (Oct4-luc) that expresses luciferase reporter driven by the exogenous Oct4 promoter was established using hygromycin-resistance as a selection marker. These Oct4-luc cells were used for high-throughput screening of a chemical library of 80,000 compounds. The luciferase reporter activity was measured 24 hr after compound treatment. Solvent treatment was included as a negative control.
as §2
Compound Screening: The Oct4-luc cells were seeded at 1.75×10^4 cells per well density into 96-well plates. Compounds were added to cells one day after cell seeding at the concentration of 10 μM for 24 hr in the High-Throughput Screening core facility at City of Hope. Compounds that induced luciferase activity 3-fold or more were selected for further validation in both Oct4-luc and Nanog-luc cells.
as §3, §1

[4] = system: human fibroblast cells (IMR90); experiment: human iPSC derivation from 4F (OSKM)-transduced IMR90 fibroblasts; type: cell-based
Protocol: It has been shown that compound OAC1 (Oct4-activating compound I) and two of its structural analogs OAC2 and OAC3 can enhance reprogramming efficiency, when added to the reprogramming mixture along with the four transcription factors, Oct4, Sox2, Klf4, and c-Myc (OSKM), in mouse system. The OAC compounds were tested to determine if they can enhance reprogramming efficiency in human system. The reprogramming process was performed as described in the diagram (FIG. 14a). Briefly, human fibroblast cells (IMR90) were induced to reprogram into induced pluripotent stem cells (iPSCs) using the four reprogramming factors (4F), OSKM. The day when the cells were transduced with the four reprogramming factors was referred to as day 0. Cells were cultured in IMR90 media for six days. On day 6, the transduced cells were split and seeded onto feeders. On day 7, IMR90 culture media was changed to hESC culture media and started compound treatment. Compound treatment was lasted for one week. Cells were monitored for the appearance of human embryonic stem cell (ESC)-like colonies. On day 9, several small human ESC-like colonies appeared in both 4F+OAC1 and 4F+OAC2-treated cells, however, human ESC-like colonies were not observed in 4F+vehicle (4F)-treated cells until day 11. To determine the effect of OAC on the efficiency of human iPSC derivation, the number of human ESC-like colonies were counted under all three conditions at day 18. Both OAC 1 and its structural analog OAC2 increased the number of human ESC-like colonies more than two-fold (FIG. 14b, c). The human ESC-like colonies were picked from either 4F or 4F+OAC-treated cells and expanded under human ESC culture conditions. These cells were able to expand and stably produce human iPSC clones with characteristic human ESC-like morphology (FIG. 14d).

[5] = system: mouse embryonic fibroblasts (MEFs); experiment: iPSC derivation from 4F (OSKM)-transduced MEFs in mouse ESC media; type: cell-based; conditions: 4F+OAC
Protocol: The generation of iPSCs is a gradual process with relatively low efficiency. Since Oct4 is central to the reprogramming process (35, 36, 38), it was hypothesized that compounds that activate Oct4 transcription may facilitate iPSC generation by enhancing reprogramming efficiency. Reprogramming of mouse embryonic fibroblasts (MEFs) was performed with the 4F reprogramming quartet Oct4, Sox2, Klf4, and c-Myc, along with solvent control, OAC1 or its structural analogs OAC2 and OAC3. The same number of starting MEFs and the same viral stocks were used for each treatment. Two days after viral transduction, the 4F-transduced cells were seeded onto feeder cells in mouse ESC culture media, and this day was designated as day 0 (FIG. 2D). Compound treatment started on day 0 and lasted for 7 days. By counting the number of clones with ESC-like morphology at day 18, both OAC1 and its analogs OAC2 and OAC3 enhanced the 4F-induced reprogramming efficiency considerably. The number of colonies with ESC-like morphology (FIG. 2E) increased 2-fold or more in 4F plus OAC (4F+OAC) treatment, compared to the 4F treatment alone (FIG. 2F, Table 3).
iPSC Derivation in Mouse ESC Media: OG2/R26MEFs were seeded onto […] at the density of 4×10^4 cells per well in DMEM medium with 10% FBS, 0.1 mM non-essential amino acids (NEAA), and 0.1 mM L-glutamine, 24 hr before transduction. Freshly concentrated viruses of the four factors, Oct4, Sox2, c-Myc, and Klf4, were added to the cells. Two days after viral infection, the viral-transduced OG2/R26MEFs were split into new 6-well plates with irradiated MEF feeder cells and cultured in mouse ESC culture medium containing 15% ESC qualified FBS, 2 mM L-glutamine, 0.1 mM 2-mercaptoethanol, 0.1 mM NEAA, 1 mM sodium pyruvate and 1000 U/ml of leukemia inhibitory factor (LIF), and this day was defined as day 0. 1 μM of each compound (OAC1, OAC2, and OAC3) was added to the 4F-transduced cells at day 0 and treatment was continued for 1 week. When iPSC colonies emerged, these colonies were picked for expansion on irradiated MEF feeders in mouse ESC medium.

[6] = day 8 post-infection of reprogramming factors; cited from earlier work
[7] = system: MEFs; conditions: OSKM, seeding 2.7 × 10^5, day 8, reference (2) Huangfu 2008; cited from earlier work

O=C1Nc2cc(Br)ccc2/C1=C1/Nc2ccccc2/C1=N\O [BIO, reference compound]
effect on Topflash reporter activity [1]: activated the Topflash reporter potently
induction of Nanog-luc, comparison with known reprogramming enhancers (in words) [2]: lower level induction
induction of Oct4-luc, comparison with known reprogramming enhancers (in words) [3]: lower level induction

O=C(Nc1ccc2[nH]ccc2c1)c1ccccc1 [OAC2, N-(1H-indol-5-yl)benzamide]
day at which human ESC-like colonies appeared ([4]; IMR90, 4F+compound, day 0 = transduction, 4F+vehicle day 11): 9 days
increase in the number of human ESC-like colonies ([4]; IMR90, day 18, versus 4F): more than two
fold induction at 1 µM ([2]; Chlorocebus aethiops, CV-1, compound at 1 μM, Nanog-luc cells, triplicates): 3.9
fold induction at 1 µM ([3]; Homo sapiens, CV-1, 24 h, read-out: Oct4-luc Activity): ≥ 1.8
fold induction at 1 µM ([3]; read-out: Oct4-luc fold Induction): 3.6
advance of the appearance of putative iPSC colonies compared to 4F only reprogramming [5]: about three to four

CC(/C=C/C(=O)NO)=C\[C@@H](C)C(=O)c1ccc(N(C)C)cc1 [TSA]
increase in reprogramming efficiency in iSF1 media [6]: 2 fold

CCCC(CCC)C(=O)O [VPA, valproic acid]
Colony numbers [7]: 241
Reprogramming efficiency [7]: 0.089%
increase in reprogramming efficiency in iSF1 media [6]: 2 fold
induction of Nanog-luc, comparison with known reprogramming enhancers (in words) [2]: no significant effect
induction of Oct4-luc, comparison with known reprogramming enhancers (in words) [3]: no significant effect
